{"source": "patent US20170112861A1", "about": "“DRUG DELIVERY ENHANCER COMPRISING SUBSTANCE FOR ACTIVATING LYSOPHOSPHOLIPID RECEPTORS” (Osaka University, priority 2014, published 2017)", "test_system": "tumor blood vessels of LLC cell tumors", "assay": "Structural changes in tumor blood vessels after LPA administration (anti-CD31 immunostaining, AngioTool)", "format": "in vivo", "settings": "LLC tumor-bearing mice, LPA 3 mg/kg i.p.", "method": "Lewis lung cancer cell line (hereinafter called LLC cells) was used as the mouse cancer cell line. LLC cells (1×10^6 cells in 100 μL PBS per animal) were subcutaneously injected into C57BL/6 NCrSlc mice aged 8 weeks (females, SLC, Inc.).\nThe LPA used was 18:1 LPA (Avanti Polar Lipids, Inc.). A 10 mM LPA stock solution was prepared using 50% ethanol and the solution was stored at −30° C. Before use, the LPA stock solution was thawed and homogenized with an ultrasonic cleaner (SND Co., Ltd.) for 1 minute. The solution was diluted in PBS before administration so that the concentration of LPA was 3 mg/kg in 100 μL PBS. The prepared solution was used for LPA administration.\nDay 9 post-inoculation of LLC cells, mice that developed a tumor with a volume of 60 to 80 mm^3 (volume=length×width×height×0.5) were selected and used for the test. Four groups each of three mice were provided: control group, LPA/6 hr group, LPA/12 hr group and LPA/24 hr group. LPA was intraperitoneally administered to the mice of the LPA groups at a dose of 3 mg/kg in 100 μL PBS. The tumors were harvested before LPA administration (control group), and at 6, 12 and 24 hours after LPA administration. The tumors were immersed in 4% paraformaldehyde (PFA)/PBS and shaken at 4° C. overnight for fixation. The tumors were washed with cold PBS (4° C.). Washing was continued for 6 hours, and PBS was renewed every 30 minutes. The tumors were immersed in 15% sucrose/PBS and shaken at 4° C. for 3 hours. The tumors were then immersed in 30% sucrose/PBS and shaken at 4° C. for 3 hours. The tumors were embedded in O.C.T compound (Tissue-Tek) and frozen at −80° C. for 3 days or longer.\nThe tumors embedded in O.C.T. compound were sectioned at 40 μm with a cryostat (Leica). The sections were placed on glass slides, and air-dried for 2 hours with a drier. The sections were encircled with a liquid blocker. […] The vessel length was measured in the photographs using the vascular structure analysis software AngioTool."}
{"substance": "lysophosphatidic acid [LPA]", "values": [{"measurement": "structure of tumor blood vessels (vascular network)", "setting": "12 and 24 hours after administration", "value": "the formation of a fine vascular network similar to that in normal tissues was observed"}, {"measurement": "structure of tumor blood vessels (vascular network)", "setting": "6 hours after administration", "value": "the connection of the blood vessels was observed"}, {"measurement": "average length of blood vessels (AngioTool)", "setting": "vs before administration", "value": "the length of blood vessels was increased"}]}
